Results taken from article PMC5697638, “Identification of a Potent Phosphoinositide 3‐Kinase Pan Inhibitor Displaying a Strategic Carboxylic Acid Group and Development of Its Prodrugs” (Chemmedchem, 2017).

Key:
Type in all cases: biochemical
hPI3Kγ (PIK3CG) = biological target: T1, hPI3Kγ (PIK3CG) (Homo sapiens, UniProt P48736); test: lipid kinase assay (ADP-Glo), PI3Kγ; conditions: for inhibition at 1 µM: determined at 1 μM, at least triplicate, read-out: Inhibitory activity, PI3K isoform γ; for IC50: Table 2, mean of at least three determinations, 95 % confidence intervals
T1 construct: purchased ProQinase, Germany 1163‐0000‐1
Protocol: (§1) In vitro selection, lipid kinase assay: To determine the inhibitory activity of the new molecular entities on PI3K enzyme, a lipid kinase assay was performed: recombinant proteins (30 ng), human PI3Kα (PIK3CA/PIK3R1, #1161‐1165‐1 ProQinase–Germany), hPI3Kβ (PIK3CB wt/PIK3R1, #1168‐1165‐1 ProQinase, Germany), hPI3Kγ (PIK3CG, #1163‐0000‐1 ProQinase, Germany), hPI3Kδ (PIK3CD/PIK3R1, #1162–1165‐1 ProQinase, Germany), hPI3K‐C2α (PIK3C2A, #14‐906 Merck Millipore_Merck KGaA, Germany), hPI3K‐C2β (PIK3C2B, #14‐907 Merck Millipore_Merck KGaA, Germany), hPI3K‐c2γ (PIK3C2G, #1207‐0000‐1 ProQinase, Germany), and hVps34 (PIK3C3, #1160‐0000‐1 ProQinase, Germany), were incubated in kinase buffer {12.5 μL; 20 mM Tris‐HCl pH 7.5, 10 mM MgCl2, 10 μM ATP, 0.05 mg mL^−1 BSA, 0.5 mM EDTA, 5 mM HEPES pH 7.5, for PI3Kα,PI3Kβ, PI3Kγ, PI3Kδ, PI3KC‐2α, and PI3KC‐2γ; 15 mM MnCl2, 5 mM EGTA, 100 μM ATP, 50 mM HEPES pH 7.5, 100 mM NaCl, and 0.03 % CHAPS for PI3K‐C2β and VPS34 {BSA=bovine serum albumin; EDTA=ethylenediaminetetraacetic acid; HEPES=4‐(2‐hydroxyethyl)‐1‐piperazineethanesulfonic acid; EGTA=ethylene glycol‐bis(2‐aminoethylether)‐N,N,N′,N′‐tetraacetic acid; CHAPS=3‐[(3‐cholamidopropyl)dimethylammonio]‐1‐propanesulfonate}. In the reaction, the ATP concentration used for different PI3Ks was defined on the basis of the Michaelis–Menten kinetics of each enzyme, provided by the supplier. Reaction was performed in presence of 0.5 mg mL^−1 lipid micelles (1:1 phosphatidylinositol/phosphatidylserine) and in the absence (DMSO alone) or presence of increasing concentrations of each compound (from 0.1 nM to 30 μM). The mixture was kept at room temperature (RT) for 30 min for PI3Kα, PI3Kβ, PI3Kγ, PI3Kδ, PI3KC‐2α, and PI3KC‐2γ and for 1 h for PI3K‐C2β and PI3K‐C3. The amount of ADP produced in the reaction was measured by using the ADP‐Glo Kinase Assay kit from Promega (#V9102) and a luminescence reader (Glomax multi detection system, Promega, model number 9301‐010).
(§2) The residual PI3K lipid kinase activity in the presence of each molecule at different concentrations was related to the control, intended as the recombinant protein in the presence of DMSO alone and was expressed as a percentage. To derive the IC50 value, all data (% of lipid kinase activity) were plotted on a dose–response curve (Graph Pad software), and the IC50 was calculated by using nonlinear regression fit (equation [log agonist] versus response).

[1] = biological target: T2, human PI3Kα (PIK3CA/PIK3R1) (Homo sapiens, UniProt P42336); test: lipid kinase assay (ADP-Glo), PI3Kα; conditions: for inhibition at 1 µM: determined at 1 μM, at least triplicate, read-out: Inhibitory activity, PI3K isoform α; for IC50: Table 2, mean of at least three determinations, 95 % confidence intervals, read-out: IC50 PI3Kα
T2 construct: purchased ProQinase, Germany 1161‐1165‐1
Protocol: as §1, §2

[2] = biological target: T3, hPI3Kβ (PIK3CB wt/PIK3R1) (Homo sapiens, UniProt P42338); test: lipid kinase assay (ADP-Glo), PI3Kβ; conditions: for inhibition at 1 µM: determined at 1 μM, at least triplicate, read-out: Inhibitory activity, PI3K isoform β; for IC50: Table 2, mean of at least three determinations, 95 % confidence intervals
T3 construct: purchased ProQinase, Germany 1168‐1165‐1
Protocol: as §1, §2

hPI3Kδ (PIK3CD/PIK3R1) = biological target: T4, hPI3Kδ (PIK3CD/PIK3R1) (Homo sapiens, UniProt O00329); test: lipid kinase assay (ADP-Glo), PI3Kδ; conditions: for inhibition at 1 µM: determined at 1 μM, at least triplicate, read-out: Inhibitory activity, PI3K isoform δ; for IC50: Table 2, mean of at least three determinations, 95 % confidence intervals
T4 construct: purchased ProQinase, Germany 1162–1165‐1
Protocol: as §1, §2

T1 sequence (P48736 whole entry, canonical isoform): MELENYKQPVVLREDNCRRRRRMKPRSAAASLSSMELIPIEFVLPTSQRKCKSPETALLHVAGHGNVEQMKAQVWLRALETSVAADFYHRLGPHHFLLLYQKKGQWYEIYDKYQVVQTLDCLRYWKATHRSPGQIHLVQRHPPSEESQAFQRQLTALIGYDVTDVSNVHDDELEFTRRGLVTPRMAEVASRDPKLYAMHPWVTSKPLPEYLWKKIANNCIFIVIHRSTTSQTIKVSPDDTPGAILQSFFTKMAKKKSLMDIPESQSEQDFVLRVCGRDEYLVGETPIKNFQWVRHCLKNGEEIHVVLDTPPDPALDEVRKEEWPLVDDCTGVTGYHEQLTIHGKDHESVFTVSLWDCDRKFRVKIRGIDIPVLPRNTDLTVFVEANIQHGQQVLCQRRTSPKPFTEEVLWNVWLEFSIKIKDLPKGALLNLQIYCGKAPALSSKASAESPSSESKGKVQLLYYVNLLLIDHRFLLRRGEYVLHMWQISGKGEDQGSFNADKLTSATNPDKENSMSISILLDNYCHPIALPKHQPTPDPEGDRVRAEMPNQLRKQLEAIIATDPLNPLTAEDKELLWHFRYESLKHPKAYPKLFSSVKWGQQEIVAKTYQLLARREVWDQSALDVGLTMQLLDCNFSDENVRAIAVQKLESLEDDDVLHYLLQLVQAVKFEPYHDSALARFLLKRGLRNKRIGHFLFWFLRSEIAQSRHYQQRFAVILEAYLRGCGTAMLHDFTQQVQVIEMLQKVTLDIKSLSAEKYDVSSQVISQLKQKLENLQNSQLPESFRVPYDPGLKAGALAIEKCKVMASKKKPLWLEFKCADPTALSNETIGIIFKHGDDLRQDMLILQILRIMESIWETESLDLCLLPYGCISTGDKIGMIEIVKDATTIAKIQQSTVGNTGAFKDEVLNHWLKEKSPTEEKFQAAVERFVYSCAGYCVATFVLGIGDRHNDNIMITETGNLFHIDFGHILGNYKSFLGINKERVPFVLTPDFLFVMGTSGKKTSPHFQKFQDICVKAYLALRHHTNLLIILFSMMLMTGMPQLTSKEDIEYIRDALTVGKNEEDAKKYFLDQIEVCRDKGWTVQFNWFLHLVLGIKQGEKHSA
T4 sequence (O00329 whole entry, canonical isoform): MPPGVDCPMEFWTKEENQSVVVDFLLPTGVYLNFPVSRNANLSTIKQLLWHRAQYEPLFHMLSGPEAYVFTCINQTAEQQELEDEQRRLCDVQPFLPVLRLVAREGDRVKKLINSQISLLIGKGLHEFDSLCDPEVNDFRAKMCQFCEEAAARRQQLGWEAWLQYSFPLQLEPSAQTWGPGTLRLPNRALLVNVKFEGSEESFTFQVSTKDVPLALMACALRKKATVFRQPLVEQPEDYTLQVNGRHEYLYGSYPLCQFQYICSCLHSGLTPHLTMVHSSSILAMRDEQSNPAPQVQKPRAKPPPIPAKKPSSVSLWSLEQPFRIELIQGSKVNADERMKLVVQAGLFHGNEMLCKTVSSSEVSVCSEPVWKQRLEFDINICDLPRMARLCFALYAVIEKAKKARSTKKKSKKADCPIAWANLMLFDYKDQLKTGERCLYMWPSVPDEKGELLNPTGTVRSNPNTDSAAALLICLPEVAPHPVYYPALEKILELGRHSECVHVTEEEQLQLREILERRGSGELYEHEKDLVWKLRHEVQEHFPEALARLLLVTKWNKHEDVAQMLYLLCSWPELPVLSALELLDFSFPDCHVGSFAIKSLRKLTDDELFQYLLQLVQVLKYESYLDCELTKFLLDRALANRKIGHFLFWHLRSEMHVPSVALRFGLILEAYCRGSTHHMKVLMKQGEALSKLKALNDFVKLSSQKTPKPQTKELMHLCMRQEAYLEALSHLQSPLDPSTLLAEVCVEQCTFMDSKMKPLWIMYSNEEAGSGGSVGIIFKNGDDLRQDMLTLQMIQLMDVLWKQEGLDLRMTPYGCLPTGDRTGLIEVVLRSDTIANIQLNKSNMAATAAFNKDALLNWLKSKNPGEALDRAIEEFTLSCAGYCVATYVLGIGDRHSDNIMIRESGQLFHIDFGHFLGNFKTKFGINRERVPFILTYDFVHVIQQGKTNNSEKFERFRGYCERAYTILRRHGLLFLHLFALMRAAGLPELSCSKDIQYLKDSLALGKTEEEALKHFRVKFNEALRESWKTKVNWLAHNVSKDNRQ
T4 sequence (P27986 whole entry partner, canonical isoform): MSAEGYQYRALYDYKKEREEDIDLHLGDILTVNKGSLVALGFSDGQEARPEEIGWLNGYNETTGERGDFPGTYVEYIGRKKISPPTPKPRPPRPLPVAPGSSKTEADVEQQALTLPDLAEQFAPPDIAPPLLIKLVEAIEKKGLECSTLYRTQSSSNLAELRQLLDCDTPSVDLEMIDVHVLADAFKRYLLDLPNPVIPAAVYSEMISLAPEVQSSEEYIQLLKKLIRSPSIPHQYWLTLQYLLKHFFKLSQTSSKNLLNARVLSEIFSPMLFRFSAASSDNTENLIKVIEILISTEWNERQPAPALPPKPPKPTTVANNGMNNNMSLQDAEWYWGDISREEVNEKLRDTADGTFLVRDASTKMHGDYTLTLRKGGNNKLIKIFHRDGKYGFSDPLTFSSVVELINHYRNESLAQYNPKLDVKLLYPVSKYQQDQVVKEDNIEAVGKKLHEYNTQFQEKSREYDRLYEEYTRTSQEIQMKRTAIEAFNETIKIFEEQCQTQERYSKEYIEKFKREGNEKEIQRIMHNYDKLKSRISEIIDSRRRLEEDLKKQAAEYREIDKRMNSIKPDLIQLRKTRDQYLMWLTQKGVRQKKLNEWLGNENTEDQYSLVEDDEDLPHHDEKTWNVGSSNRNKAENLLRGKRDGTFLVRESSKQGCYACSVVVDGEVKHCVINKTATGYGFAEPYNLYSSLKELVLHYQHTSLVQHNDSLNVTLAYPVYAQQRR
T3 sequence (P42338 whole entry, canonical isoform): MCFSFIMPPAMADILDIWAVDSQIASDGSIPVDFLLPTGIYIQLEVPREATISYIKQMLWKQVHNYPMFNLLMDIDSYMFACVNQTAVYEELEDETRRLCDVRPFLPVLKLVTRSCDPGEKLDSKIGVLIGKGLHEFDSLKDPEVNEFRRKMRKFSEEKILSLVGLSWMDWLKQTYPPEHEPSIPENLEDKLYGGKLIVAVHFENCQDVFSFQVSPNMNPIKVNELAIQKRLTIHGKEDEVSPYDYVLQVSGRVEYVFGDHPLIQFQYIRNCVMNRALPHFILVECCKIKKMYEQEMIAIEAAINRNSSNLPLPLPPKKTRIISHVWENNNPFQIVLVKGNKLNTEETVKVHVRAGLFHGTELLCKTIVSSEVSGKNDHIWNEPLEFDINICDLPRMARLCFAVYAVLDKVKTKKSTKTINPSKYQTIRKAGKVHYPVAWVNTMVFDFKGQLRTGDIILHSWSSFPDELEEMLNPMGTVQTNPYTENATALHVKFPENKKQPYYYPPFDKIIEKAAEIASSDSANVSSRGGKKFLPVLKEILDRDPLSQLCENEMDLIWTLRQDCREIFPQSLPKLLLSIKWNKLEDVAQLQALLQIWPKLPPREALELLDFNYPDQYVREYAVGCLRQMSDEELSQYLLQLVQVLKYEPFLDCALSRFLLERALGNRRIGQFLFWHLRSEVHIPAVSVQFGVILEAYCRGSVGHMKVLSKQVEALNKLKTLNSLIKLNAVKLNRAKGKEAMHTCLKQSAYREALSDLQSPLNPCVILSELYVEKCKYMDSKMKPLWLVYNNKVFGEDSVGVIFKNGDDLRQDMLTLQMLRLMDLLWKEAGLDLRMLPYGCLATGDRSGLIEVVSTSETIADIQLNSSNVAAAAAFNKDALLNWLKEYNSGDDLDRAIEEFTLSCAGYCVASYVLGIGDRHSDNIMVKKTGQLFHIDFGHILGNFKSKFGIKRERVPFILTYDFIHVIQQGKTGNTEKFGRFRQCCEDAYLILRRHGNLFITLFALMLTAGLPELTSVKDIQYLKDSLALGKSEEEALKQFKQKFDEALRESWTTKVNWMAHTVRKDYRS
T3 sequence (P27986 whole entry partner, canonical isoform): as the sequence (P27986 whole entry partner, canonical isoform) above
T2 sequence (P42336 whole entry, canonical isoform): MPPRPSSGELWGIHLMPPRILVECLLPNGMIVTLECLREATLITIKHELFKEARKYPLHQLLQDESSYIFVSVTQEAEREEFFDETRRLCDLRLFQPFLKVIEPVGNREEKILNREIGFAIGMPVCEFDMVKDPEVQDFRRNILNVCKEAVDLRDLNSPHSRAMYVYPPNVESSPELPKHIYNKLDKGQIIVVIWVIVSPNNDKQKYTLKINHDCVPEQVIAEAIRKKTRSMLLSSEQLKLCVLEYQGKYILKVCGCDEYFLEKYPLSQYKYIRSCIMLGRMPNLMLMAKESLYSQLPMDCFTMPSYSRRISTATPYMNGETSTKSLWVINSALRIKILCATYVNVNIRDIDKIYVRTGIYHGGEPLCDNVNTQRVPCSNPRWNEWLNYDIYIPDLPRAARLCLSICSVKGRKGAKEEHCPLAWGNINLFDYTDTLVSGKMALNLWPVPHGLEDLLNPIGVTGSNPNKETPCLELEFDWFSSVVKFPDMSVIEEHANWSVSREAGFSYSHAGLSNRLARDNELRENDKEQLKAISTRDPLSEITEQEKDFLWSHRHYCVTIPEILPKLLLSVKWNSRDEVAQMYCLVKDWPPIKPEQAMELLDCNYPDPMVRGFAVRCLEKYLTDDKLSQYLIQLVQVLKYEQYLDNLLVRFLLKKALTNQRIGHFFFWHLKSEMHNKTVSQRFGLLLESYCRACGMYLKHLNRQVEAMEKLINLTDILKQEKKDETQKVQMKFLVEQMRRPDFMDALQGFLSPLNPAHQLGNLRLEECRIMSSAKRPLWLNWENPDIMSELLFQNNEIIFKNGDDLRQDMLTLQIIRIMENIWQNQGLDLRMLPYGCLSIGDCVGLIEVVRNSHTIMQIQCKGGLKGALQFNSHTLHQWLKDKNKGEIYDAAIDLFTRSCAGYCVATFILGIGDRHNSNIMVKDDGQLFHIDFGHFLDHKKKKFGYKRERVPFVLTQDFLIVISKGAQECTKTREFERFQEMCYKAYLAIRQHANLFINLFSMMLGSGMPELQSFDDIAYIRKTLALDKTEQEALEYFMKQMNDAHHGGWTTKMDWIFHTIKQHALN
T2 sequence (P27986 whole entry partner, canonical isoform): as the sequence (P27986 whole entry partner, canonical isoform) above

Compound | inhibition at 1 µM (hPI3Kγ (PIK3CG)) [%] | inhibition at 1 µM [1] [%] | inhibition at 1 µM [2] [%] | inhibition at 1 µM (hPI3Kδ (PIK3CD/PIK3R1)) [%] | IC50 (hPI3Kγ (PIK3CG)) [µM] | IC50 [1] [µM] | IC50 [2] [µM] | IC50 (hPI3Kδ (PIK3CD/PIK3R1)) [µM]
Cc1cc(O)ccc1-n1cc(-c2cccc3c(=O)cc(N4CCOCC4)[nH]c23)nn1 [Compound 40, 8‐[1‐(4‐Hydroxy‐2‐methylphenyl)‐1H‐1,2,3‐triazol‐4‐yl]‐2‐morpholinoquinolin‐4(1H)‐one] | < 50 | < 50 | < 50 | < 50 | – | – | – | –
O=c1cc(N2CCOCC2)[nH]c2c(-c3cn(-c4ccccc4CO)nn3)cccc12 [Compound 41, 8‐{1‐[2‐(Hydroxymethyl)phenyl]‐1H‐1,2,3‐triazol‐4‐yl}‐2‐morpholinoquinolin‐4(1H)‐one] | < 50 | < 50 | < 50 | < 50 | – | – | – | –
COC(=O)c1ccc(-n2cc(-c3cccc4c(=O)cc(N5CCOCC5)[nH]c34)nn2)cc1 [Compound 42, Methyl 4‐[4‐(2‐morpholino‐4‐oxo‐1,4‐dihydroquinolin‐8‐yl)‐1H‐1,2,3‐triazol‐1‐yl]benzoate] | < 50 | < 50 | < 50 | < 50 | – | – | – | –
COc1ccc(-n2cc(-c3cccc4c(=O)cc(N5CCOCC5)[nH]c34)nn2)cc1OC [Compound 43, 8‐[1‐(3,4‐Dimethoxyphenyl)‐1H‐1,2,3‐triazol‐4‐yl]‐2‐morpholinoquinolin‐4(1H)‐one] | < 50 | < 50 | < 50 | < 50 | – | – | – | –
COc1ccc(-n2cc(-c3cccc4c(=O)cc(N5CCOCC5)[nH]c34)nn2)cc1 [Compound 44, 8‐[1‐(4‐Methoxyphenyl)‐1H‐1,2,3‐triazol‐4‐yl]‐2‐morpholinoquinolin‐4(1H)‐one] | < 50 | < 50 | < 50 | < 50 | – | – | – | –
O=C(O)c1ccc(-n2cc(-c3cccc4c(=O)cc(N5CCOCC5)[nH]c34)nn2)cc1 [Compound 45, 4‐[4‐(2‐Morpholino‐4‐oxo‐1,4‐dihydroquinolin‐8‐yl)‐1H‐1,2,3‐triazol‐1‐yl]benzoic acid] | > 50 | > 50 | > 50 | > 50 | 0.3 ± 0.2 | 0.32 ± 0.2 | 0.3 ± 0.2 | 0.17 ± 0.1
O=c1cc(N2CCOCC2)[nH]c2c(-c3cn(-c4ccc5c(c4)OCO5)nn3)cccc12 [Compound 46, 8‐[1‐(Benzo[d][1,3]dioxol‐5‐yl)‐1H‐1,2,3‐triazol‐4‐yl]‐2‐morpholinoquinolin‐4(1H)‐one] | < 50 | < 50 | < 50 | < 50 | – | – | – | –
COc1cc(OC)cc(-n2cc(-c3cccc4c(=O)cc(N5CCOCC5)[nH]c34)nn2)c1 [Compound 47, 8‐[1‐(3,5‐Dimethoxyphenyl)‐1H‐1,2,3‐triazol‐4‐yl]‐2‐morpholinoquinolin‐4(1H)‐one] | < 50 | < 50 | < 50 | < 50 | – | – | – | –
O=c1cc(N2CCOCC2)[nH]c2c(-c3cn(Cc4ccccc4)nn3)cccc12 [Compound 48, 8‐(1‐Benzyl‐1H‐1,2,3‐triazol‐4‐yl)‐2‐morpholinoquinolin‐4(1H)‐one] | > 50 | < 50 | > 50 | > 50 | 1 ± 0.5 | 2.65 ± 0.8 | 0.1 ± 0.04 | 0.47 ± 0.26
COC(=O)c1cccc(-n2cc(-c3cccc4c(=O)cc(N5CCOCC5)[nH]c34)nn2)c1 [Compound 49, Methyl 3‐[4‐(2‐morpholino‐4‐oxo‐1,4‐dihydroquinolin‐8‐yl)‐1H‐1,2,3‐triazol‐1‐yl]benzoate] | < 50 | < 50 | < 50 | < 50 | – | – | – | –
NS(=O)(=O)c1ccc(-n2cc(-c3cccc4c(=O)cc(N5CCOCC5)[nH]c34)nn2)cc1 [Compound 50, 4‐[4‐(2‐Morpholino‐4‐oxo‐1,4‐dihydroquinolin‐8‐yl)‐1H‐1,2,3‐triazol‐1‐yl]benzenesulfonamide] | < 50 | < 50 | < 50 | < 50 | – | – | – | –
O=C(O)c1cccc(-n2cc(-c3cccc4c(=O)cc(N5CCOCC5)[nH]c34)nn2)c1 [Compound 52, 3‐[4‐(2‐Morpholino‐4‐oxo‐1,4‐dihydroquinolin‐8‐yl)‐1H‐1,2,3‐triazol‐1‐yl]benzoic acid] | < 50 | < 50 | < 50 | < 50 | – | – | – | –
O=c1cc(N2CCOCC2)[nH]c2c(-c3cn(-c4cccc5ccccc45)nn3)cccc12 [Compound 53, 2‐Morpholino‐8‐[1‐(naphthalen‐1‐yl)‐1H‐1,2,3‐triazol‐4‐yl]quinolin‐4(1H)‐one] | < 50 | < 50 | < 50 | < 50 | – | – | – | –
O=c1cc(N2CCOCC2)[nH]c2c(-c3cn(-c4ccccc4O)nn3)cccc12 [Compound 54, 8‐[1‐(2‐Hydroxyphenyl)‐1H‐1,2,3‐triazol‐4‐yl]‐2‐morpholinoquinolin‐4(1H)‐one] | < 50 | > 50 | < 50 | > 50 | 1.4 ± 0.44 | 0.26 ± 0.12 | 1.1 ± 0.5 | 0.35 ± 0.17
Cc1cc(F)ccc1Oc1cccc2c(=O)cc(N3CCOCC3)[nH]c12 [TGX155, reference compound] | – | – | – | – | 9.4 ± 1.2 | > 10 | 0.096 ± 0.007 | 0.41 ± 0.13
